Measurements published in patent US20240270720A1, “INDAZOLE YL BENZIMIDAZOLE DERIVATIVE OR PHARMACEUTICALLY ACCEPTABLE SALT THEREOF, AND USE THEREOF” (INDUSTRY-UNIVERSITY COOPERATION FOUNDATION HANYANG …, priority 2021, published 2024).

What was measured:
TYRO3/SKY = biological target: T1, TYRO3/SKY (Homo sapiens, UniProt Q06418); test: Protein kinase profiling (Kinase HotSpot); type: biochemical; details: single dose 1 μM
T1 construct: purchased Reaction Biology Corp. (Kinase HotSpot service)

AXL = biological target: T2, AXL (Homo sapiens, UniProt P30530); test: Protein kinase profiling (Kinase HotSpot); type: biochemical; details: single dose 1 μM
T2 construct: purchased Reaction Biology Corp. (Kinase HotSpot service)
Protocol: (§1) Reaction Biology Corp. Kinase HotSpot SM service (www.reactionbiology.com) was used to determine IC50 values for all compounds and kinase profiles. The analysis protocol was as follows: In a final reaction volume of 25 μL, a peptide substrate, [[sequence]], 5 μM, ATP 10 μM, and FLT3(h) (5 to 10 mU) were incubated with 25 mM Tris pH 7.5, 0.02 mM EGTA, 0.66 mg/mL myelin basic protein, 10 mM Mg acetate and [γ-33P-ATP] (a concentration of approximately 500 cpm/pmol was required for specific activity). The reaction was initiated by adding the Mg-ATP mixture. After incubation at room temperature for 40 minutes, the reaction was stopped by adding 5 μL of a 3% phosphoric acid solution. Thereafter, 10 μL of the reactant was spotted on a P30 filter mat and washed three times for 5 minutes in 75 mM phosphoric acid and once in methanol before drying and scintillation counting.

c-MET = biological target: T3, c-MET (Homo sapiens, UniProt P08581); test: Protein kinase profiling (Kinase HotSpot); type: biochemical; details: single dose 1 μM
T3 construct: purchased Reaction Biology Corp. (Kinase HotSpot service)
Protocol: (§2) The analysis protocol was as follows: In a final reaction volume of 25 μL, a peptide substrate, [[sequence]], 5 μM, ATP 10 μM, and FLT3(h) (5 to 10 mU) were incubated with 25 mM Tris pH 7.5, 0.02 mM EGTA, 0.66 mg/mL myelin basic protein, 10 mM Mg acetate and [γ-33P-ATP] (a concentration of approximately 500 cpm/pmol was required for specific activity). The reaction was initiated by adding the Mg-ATP mixture. After incubation at room temperature for 40 minutes, the reaction was stopped by adding 5 μL of a 3% phosphoric acid solution. Thereafter, 10 μL of the reactant was spotted on a P30 filter mat and washed three times for 5 minutes in 75 mM phosphoric acid and once in methanol before drying and scintillation counting.

FGFR3 = FGFR3 (Homo sapiens, UniProt P22607); test: Protein kinase profiling (Kinase HotSpot)
Protocol: as §1

RON/MST1R = biological target: T4, RON/MST1R (Homo sapiens, UniProt Q04912); test: Protein kinase profiling (Kinase HotSpot); type: biochemical; details: single dose 1 μM
T4 construct: purchased Reaction Biology Corp. (Kinase HotSpot service)
Protocol: as §2

Aurora A = Aurora A (Homo sapiens, UniProt O14965); test: Protein kinase profiling (Kinase HotSpot)
Protocol: as §1

BRAF (V599E) = biological target: T5, BRAF (V599E) (Homo sapiens, UniProt P15056, V600E); test: Protein kinase profiling (Kinase HotSpot); type: biochemical
T5 construct: purchased Reaction Biology Corp. (Kinase HotSpot service)
Protocol: as §1

c-Kit = c-Kit (Homo sapiens, UniProt P10721); test: Protein kinase profiling (Kinase HotSpot)
Chain of c-Kit (P10721 26-976): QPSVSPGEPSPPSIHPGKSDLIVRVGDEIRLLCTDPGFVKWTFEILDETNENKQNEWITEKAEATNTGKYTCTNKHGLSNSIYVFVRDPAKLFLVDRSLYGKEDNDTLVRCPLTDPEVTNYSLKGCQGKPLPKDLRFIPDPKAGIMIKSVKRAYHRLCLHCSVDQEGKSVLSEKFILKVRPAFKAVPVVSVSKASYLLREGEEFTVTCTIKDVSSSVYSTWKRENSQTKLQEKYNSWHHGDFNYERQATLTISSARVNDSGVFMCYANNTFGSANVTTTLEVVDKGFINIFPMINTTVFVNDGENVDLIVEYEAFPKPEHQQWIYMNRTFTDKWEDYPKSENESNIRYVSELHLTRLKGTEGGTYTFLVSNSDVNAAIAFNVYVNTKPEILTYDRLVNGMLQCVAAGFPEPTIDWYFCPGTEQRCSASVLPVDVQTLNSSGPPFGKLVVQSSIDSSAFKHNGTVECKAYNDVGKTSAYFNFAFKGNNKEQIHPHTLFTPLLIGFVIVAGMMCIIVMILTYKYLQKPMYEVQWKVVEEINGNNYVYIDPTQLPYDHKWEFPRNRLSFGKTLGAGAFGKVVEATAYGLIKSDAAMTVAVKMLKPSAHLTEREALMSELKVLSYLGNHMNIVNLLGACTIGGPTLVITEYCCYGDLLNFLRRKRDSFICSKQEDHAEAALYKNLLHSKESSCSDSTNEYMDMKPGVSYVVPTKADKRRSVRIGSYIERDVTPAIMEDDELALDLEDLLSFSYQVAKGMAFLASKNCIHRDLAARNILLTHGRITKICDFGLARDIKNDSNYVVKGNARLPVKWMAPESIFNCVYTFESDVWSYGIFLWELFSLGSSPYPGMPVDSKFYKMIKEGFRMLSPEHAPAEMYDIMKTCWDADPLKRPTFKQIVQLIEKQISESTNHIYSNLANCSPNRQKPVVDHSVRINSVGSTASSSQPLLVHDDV
Protocol: as §1

LCK = biological target: T6, LCK (Homo sapiens, UniProt P06239); test: Protein kinase profiling (Kinase HotSpot); type: biochemical; details: single dose 1 μM
T6 construct: purchased Reaction Biology Corp. (Kinase HotSpot service)
Protocol: as §2

PKA = PKA (Homo sapiens, UniProt P17612); test: Protein kinase profiling (Kinase HotSpot)
Protocol: as §2

BTK = biological target: T7, BTK (Homo sapiens, UniProt Q06187); test: Protein kinase profiling (Kinase HotSpot); type: biochemical; details: single dose 1 μM
T7 construct: purchased Reaction Biology Corp. (Kinase HotSpot service)
Protocol: as §1

AKT1 = biological target: T8, AKT1 (Homo sapiens, UniProt P31749); test: Protein kinase profiling (Kinase HotSpot); type: biochemical; details: single dose 1 μM
T8 construct: purchased Reaction Biology Corp. (Kinase HotSpot service)
Protocol: as §1

FLT3 (ITD)-NPOS = FLT3 (ITD)-NPOS (Homo sapiens, UniProt P36888); test: Kinase HotSpot radiometric kinase assay (Reaction Biology); type: biochemical; details: single dose 1 μM
Protocol: Reaction Biology Corp. Kinase HotSpot SM service (www.reactionbiology.com) was used to determine IC50 values for all compounds and kinase profiles. […] The reaction was initiated by adding the Mg-ATP mixture. After incubation at room temperature for 40 minutes, the reaction was stopped by adding 5 μL of a 3% phosphoric acid solution. Thereafter, 10 μL of the reactant was spotted on a P30 filter mat and washed three times for 5 minutes in 75 mM phosphoric acid and once in methanol before drying and scintillation counting.

CAMKK1 = biological target: T9, CAMKK1 (Homo sapiens, UniProt Q8N5S9); test: Protein kinase profiling (Kinase HotSpot); type: biochemical
T9 construct: purchased Reaction Biology Corp. (Kinase HotSpot service)
T9 sequence (Q8N5S9 whole entry): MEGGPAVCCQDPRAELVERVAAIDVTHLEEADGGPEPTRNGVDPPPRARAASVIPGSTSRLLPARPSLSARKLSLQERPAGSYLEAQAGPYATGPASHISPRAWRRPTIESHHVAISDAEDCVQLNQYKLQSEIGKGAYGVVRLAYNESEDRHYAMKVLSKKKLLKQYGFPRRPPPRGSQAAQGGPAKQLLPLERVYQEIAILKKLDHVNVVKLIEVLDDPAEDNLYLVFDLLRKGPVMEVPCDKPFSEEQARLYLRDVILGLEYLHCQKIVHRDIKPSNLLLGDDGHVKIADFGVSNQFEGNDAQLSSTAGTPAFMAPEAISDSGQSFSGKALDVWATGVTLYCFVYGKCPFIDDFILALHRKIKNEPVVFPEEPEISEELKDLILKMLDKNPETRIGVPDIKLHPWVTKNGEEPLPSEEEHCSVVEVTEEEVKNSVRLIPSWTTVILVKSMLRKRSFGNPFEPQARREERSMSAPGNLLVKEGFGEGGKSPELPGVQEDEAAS
Protocol: as §1

AXL (R499C) = biological target: T10, AXL (R499C) (Homo sapiens, UniProt P30530, R499C); test: Protein kinase profiling (Kinase HotSpot); type: biochemical; details: single dose 1 μM
T10 construct: purchased Reaction Biology Corp. (Kinase HotSpot service)
Protocol: as §1

FMS = biological target: T11, FMS (Homo sapiens, UniProt P07333); test: Protein kinase profiling (Kinase HotSpot); type: biochemical; details: single dose 1 μM
T11 construct: purchased Reaction Biology Corp. (Kinase HotSpot service)
Protocol: as §1

LYN = LYN (Homo sapiens, UniProt P07948); test: Protein kinase profiling (Kinase HotSpot)
Protocol: as §2

c-MER = biological target: T12, c-MER (Homo sapiens, UniProt Q12866); test: Protein kinase profiling (Kinase HotSpot); type: biochemical; details: single dose 1 μM
T12 construct: purchased Reaction Biology Corp. (Kinase HotSpot service)
Protocol: as §2

c-Src = biological target: T13, c-Src (Homo sapiens, UniProt P12931); test: Protein kinase profiling (Kinase HotSpot); type: biochemical; details: single dose 1 μM
T13 construct: purchased Reaction Biology Corp. (Kinase HotSpot service)
Protocol: as §2

EGFR = biological target: T14, EGFR (Homo sapiens, UniProt P00533); test: Protein kinase profiling (Kinase HotSpot); type: biochemical; details: single dose 1 μM
T14 construct: purchased Reaction Biology Corp. (Kinase HotSpot service)
Protocol: as §2

[1] = biological target: T15, FLT3 (Y591_V592 ins VDFREYEYD) (Homo sapiens, UniProt P36888, INS591VDFREYEYD); test: Kinase HotSpot radiometric kinase assay (Reaction Biology); type: biochemical
T15 construct: purchased Reaction Biology Corp. (Kinase HotSpot service)
T15 sequence (P36888 with tags, fused parts or gaps with the stated changes limits assumed): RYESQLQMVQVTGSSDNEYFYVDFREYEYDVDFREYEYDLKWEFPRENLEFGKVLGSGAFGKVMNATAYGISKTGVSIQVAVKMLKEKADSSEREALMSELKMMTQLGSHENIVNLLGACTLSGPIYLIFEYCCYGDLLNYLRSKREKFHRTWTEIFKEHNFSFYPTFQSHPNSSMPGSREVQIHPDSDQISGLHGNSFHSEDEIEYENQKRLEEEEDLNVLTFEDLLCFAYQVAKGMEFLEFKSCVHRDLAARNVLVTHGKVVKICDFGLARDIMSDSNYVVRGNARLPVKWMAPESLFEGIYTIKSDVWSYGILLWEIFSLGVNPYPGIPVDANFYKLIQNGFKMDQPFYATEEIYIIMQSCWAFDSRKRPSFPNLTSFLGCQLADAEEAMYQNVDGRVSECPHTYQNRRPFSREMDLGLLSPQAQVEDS
Protocol: as §1

TRKC = biological target: T16, TRKC (Homo sapiens, UniProt Q16288); test: Protein kinase profiling (Kinase HotSpot); type: biochemical
T16 construct: purchased Reaction Biology Corp. (Kinase HotSpot service)
T16 sequence (Q16288 32-839): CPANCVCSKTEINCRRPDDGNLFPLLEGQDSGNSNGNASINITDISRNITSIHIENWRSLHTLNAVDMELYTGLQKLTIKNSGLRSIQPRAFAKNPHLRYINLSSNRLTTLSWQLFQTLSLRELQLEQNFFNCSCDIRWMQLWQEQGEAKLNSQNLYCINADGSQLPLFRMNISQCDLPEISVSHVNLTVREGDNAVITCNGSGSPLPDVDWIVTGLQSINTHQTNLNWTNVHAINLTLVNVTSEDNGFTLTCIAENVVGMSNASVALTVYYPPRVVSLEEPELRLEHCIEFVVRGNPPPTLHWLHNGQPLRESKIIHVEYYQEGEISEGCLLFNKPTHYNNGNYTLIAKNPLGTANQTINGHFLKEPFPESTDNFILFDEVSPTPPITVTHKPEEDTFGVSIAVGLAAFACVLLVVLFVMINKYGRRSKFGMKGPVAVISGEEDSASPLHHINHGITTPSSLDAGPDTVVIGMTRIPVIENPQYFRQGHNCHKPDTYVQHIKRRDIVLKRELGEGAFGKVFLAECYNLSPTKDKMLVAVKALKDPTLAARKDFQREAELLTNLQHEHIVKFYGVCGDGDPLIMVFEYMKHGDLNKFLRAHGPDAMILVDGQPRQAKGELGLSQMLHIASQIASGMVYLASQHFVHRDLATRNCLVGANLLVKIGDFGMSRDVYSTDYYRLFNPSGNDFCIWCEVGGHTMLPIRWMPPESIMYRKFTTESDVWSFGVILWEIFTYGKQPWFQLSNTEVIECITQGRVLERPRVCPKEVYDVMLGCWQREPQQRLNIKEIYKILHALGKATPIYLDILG
Protocol: as §1

KDR/VEGFR2 = biological target: T17, KDR/VEGFR2 (Homo sapiens, UniProt P35968); test: Protein kinase profiling (Kinase HotSpot); type: biochemical; details: single dose 1 μM
T17 construct: purchased Reaction Biology Corp. (Kinase HotSpot service)
Protocol: as §2

ERK1 = biological target: T18, ERK1 (Homo sapiens, UniProt P27361); test: Protein kinase profiling (Kinase HotSpot); type: biochemical
T18 construct: purchased Reaction Biology Corp. (Kinase HotSpot service)
Protocol: as §2

ABL1 = biological target: T19, ABL1 (Homo sapiens, UniProt P00519); test: Protein kinase profiling (Kinase HotSpot); type: biochemical
T19 construct: purchased Reaction Biology Corp. (Kinase HotSpot service)
T19 sequence (P00519 whole entry): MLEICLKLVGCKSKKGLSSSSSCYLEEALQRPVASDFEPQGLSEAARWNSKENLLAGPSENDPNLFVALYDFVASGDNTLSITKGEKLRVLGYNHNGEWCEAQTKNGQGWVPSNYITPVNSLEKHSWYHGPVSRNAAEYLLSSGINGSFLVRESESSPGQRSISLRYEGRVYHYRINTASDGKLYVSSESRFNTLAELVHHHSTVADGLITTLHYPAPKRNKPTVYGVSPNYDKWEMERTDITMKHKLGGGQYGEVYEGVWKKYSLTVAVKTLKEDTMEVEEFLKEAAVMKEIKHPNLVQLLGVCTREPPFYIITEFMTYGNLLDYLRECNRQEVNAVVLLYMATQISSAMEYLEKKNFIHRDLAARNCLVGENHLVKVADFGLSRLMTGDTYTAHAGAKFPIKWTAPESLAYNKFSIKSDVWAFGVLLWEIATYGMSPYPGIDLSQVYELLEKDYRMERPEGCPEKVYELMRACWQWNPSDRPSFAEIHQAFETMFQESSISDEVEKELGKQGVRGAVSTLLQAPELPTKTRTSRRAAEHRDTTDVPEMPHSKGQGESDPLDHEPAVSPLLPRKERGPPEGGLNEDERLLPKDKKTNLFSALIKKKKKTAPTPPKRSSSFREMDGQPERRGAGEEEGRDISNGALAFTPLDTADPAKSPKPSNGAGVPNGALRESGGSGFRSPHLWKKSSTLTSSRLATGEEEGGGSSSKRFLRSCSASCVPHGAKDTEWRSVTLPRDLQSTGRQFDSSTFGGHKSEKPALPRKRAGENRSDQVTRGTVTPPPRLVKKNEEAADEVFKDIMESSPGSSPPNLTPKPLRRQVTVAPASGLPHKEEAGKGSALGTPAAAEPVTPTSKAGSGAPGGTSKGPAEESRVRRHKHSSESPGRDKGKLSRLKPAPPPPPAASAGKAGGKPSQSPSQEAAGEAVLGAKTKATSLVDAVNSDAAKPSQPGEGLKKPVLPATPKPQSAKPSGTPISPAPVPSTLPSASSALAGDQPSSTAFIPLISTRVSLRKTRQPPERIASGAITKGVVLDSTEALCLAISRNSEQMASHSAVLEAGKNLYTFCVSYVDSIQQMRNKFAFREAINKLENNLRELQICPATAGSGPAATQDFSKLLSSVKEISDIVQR
Protocol: as §1

most other kinases = test: Protein kinase profiling, 42 different kinases (summary); type: biochemical; details: 1 μM; kinases of the 42-kinase panel other than FLT3
FLT3-ITD = FLT3-ITD (Homo sapiens, UniProt P36888); test: Protein kinase profiling (Kinase HotSpot); type: biochemical; details: single dose 1 μM
JAK3 = JAK3 (Homo sapiens, UniProt P52333); test: Protein kinase profiling (Kinase HotSpot)
Protocol: as §2

FYN = FYN (Homo sapiens, UniProt P06241); test: Protein kinase profiling (Kinase HotSpot)
Protocol: as §1

SYK = biological target: T20, SYK (Homo sapiens, UniProt P43405); test: Protein kinase profiling (Kinase HotSpot); type: biochemical; details: single dose 1 μM
T20 construct: purchased Reaction Biology Corp. (Kinase HotSpot service)
Protocol: as §2

ALK = biological target: T21, ALK (Homo sapiens, UniProt Q9UM73); test: Protein kinase profiling (Kinase HotSpot); type: biochemical; details: single dose 1 μM
T21 construct: purchased Reaction Biology Corp. (Kinase HotSpot service)
Protocol: as §1

GSK3b = GSK3b (Homo sapiens, UniProt P49841); test: Protein kinase profiling (Kinase HotSpot)
Protocol: as §1

FLT3 (R595_E596 ins EY) = biological target: T22, FLT3 (R595_E596 ins EY) (Homo sapiens, UniProt P36888, INS595EY); test: Kinase HotSpot radiometric kinase assay (Reaction Biology); type: biochemical
T22 construct: purchased Reaction Biology Corp. (Kinase HotSpot service)
T22 sequence (P36888 with tags, fused parts or gaps INS595EY limits assumed): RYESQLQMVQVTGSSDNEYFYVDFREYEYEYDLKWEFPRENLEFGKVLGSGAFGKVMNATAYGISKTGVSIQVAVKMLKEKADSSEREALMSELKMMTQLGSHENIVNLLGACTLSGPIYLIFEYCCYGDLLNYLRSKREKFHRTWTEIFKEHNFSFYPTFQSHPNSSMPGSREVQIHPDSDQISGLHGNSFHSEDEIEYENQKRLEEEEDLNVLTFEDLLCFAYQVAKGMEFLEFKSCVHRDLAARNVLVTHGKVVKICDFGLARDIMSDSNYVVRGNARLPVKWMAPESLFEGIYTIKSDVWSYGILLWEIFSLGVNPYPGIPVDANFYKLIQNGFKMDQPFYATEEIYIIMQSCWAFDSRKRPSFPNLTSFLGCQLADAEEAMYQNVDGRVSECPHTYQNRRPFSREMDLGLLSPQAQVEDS
Protocol: as §1

MEK1 = biological target: T23, MEK1 (Homo sapiens, UniProt Q02750); test: Protein kinase profiling (Kinase HotSpot); type: biochemical; details: single dose 1 μM
T23 construct: purchased Reaction Biology Corp. (Kinase HotSpot service)
Protocol: as §2

IGF1R = biological target: T24, IGF1R (Homo sapiens, UniProt P08069); test: Protein kinase profiling (Kinase HotSpot); type: biochemical; details: single dose 1 μM
T24 construct: purchased Reaction Biology Corp. (Kinase HotSpot service)
Protocol: as §1

ROS/ROS1 = ROS/ROS1 (Homo sapiens, UniProt P08922); test: Protein kinase profiling (Kinase HotSpot)
Protocol: as §2

PLK1 = biological target: T25, PLK1 (Homo sapiens, UniProt P53350); test: Protein kinase profiling (Kinase HotSpot); type: biochemical; details: single dose 1 μM
T25 construct: purchased Reaction Biology Corp. (Kinase HotSpot service)
T25 sequence (P53350 whole entry): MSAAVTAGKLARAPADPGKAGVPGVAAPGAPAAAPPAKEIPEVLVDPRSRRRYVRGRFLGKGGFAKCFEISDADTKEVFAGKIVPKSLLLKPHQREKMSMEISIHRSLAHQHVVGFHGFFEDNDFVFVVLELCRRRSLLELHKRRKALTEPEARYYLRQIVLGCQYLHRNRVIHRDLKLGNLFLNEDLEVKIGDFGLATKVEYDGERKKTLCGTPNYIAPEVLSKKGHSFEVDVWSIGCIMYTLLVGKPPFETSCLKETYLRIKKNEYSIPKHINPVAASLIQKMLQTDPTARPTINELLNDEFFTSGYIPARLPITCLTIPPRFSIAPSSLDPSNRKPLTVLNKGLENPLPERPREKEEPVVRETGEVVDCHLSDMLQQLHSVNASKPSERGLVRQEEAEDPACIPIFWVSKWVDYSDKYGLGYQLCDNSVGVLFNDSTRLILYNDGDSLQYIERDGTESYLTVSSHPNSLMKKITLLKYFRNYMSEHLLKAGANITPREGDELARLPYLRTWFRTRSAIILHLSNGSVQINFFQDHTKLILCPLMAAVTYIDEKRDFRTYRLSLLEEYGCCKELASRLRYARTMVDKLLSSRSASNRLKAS
Protocol: as §2

CCN1CCN(Cc2cc(C(=O)Nc3ccc4[nH]c(-c5ccc6cn[nH]c6c5)nc4c3)cc(C(F)(F)F)c2)CC1 [Compound 8r, N-(2-(1H-indazol-6-yl)-1H-benzo[di]imidazol-5-yl)-3-((4-ethylpiperazin-1-yl)methyl)-5-(trifluoromethyl)benzamide]
inhibition at 1 µM (TYRO3/SKY): 9.76% | inhibition at 1 µM (AXL): 1.88% | inhibition at 1 µM (c-MET): 6.53% | inhibition at 1 µM (FGFR3): 0% | inhibition at 1 µM (RON/MST1R): 6.99% | inhibition at 1 µM (Aurora A): 7.47% | inhibition at 1 µM (BRAF (V599E)): 1% | inhibition at 1 µM (c-Kit): 19% | IC50 (c-Kit; read-out: IC50 c-Kit, Table 4): 4570 nM | inhibition at 1 µM (LCK): 0% | inhibition at 1 µM (PKA): 7.34% | inhibition at 1 µM (BTK): 17.5% | inhibition at 1 µM (AKT1): 3.09% | % Inhibition (FLT3 (ITD)-NPOS): 88.0% | inhibition at 1 µM (CAMKK1; CAMKK1, single dose 1 μM): 32.5% | IC50 (CAMKK1; Table 4): 395 nM | inhibition at 1 µM (AXL (R499C)): 6.64% | inhibition at 1 µM (FMS): 0.531% | inhibition at 1 µM (LYN): 7.4% | inhibition at 1 µM (c-MER): 7.3% | inhibition at 1 µM (c-Src): 1.94% | inhibition at 1 µM (EGFR): 0.274% | inhibition at 1 µM ([1]; FLT3 (Y591_V592ins[…]), single dose 1 μM): 90.9% | IC50 ([1]; read-out: IC50 FLT3 (Y591_V592 ins VDFREYEYD)): 49.5 nM | inhibition at 1 µM (TRKC; TRKC, single dose 1 μM): 48.3% | IC50 (TRKC; Table 4): 1520 nM | inhibition at 1 µM (KDR/VEGFR2): 7.12% | inhibition at 1 µM (ERK1): 0% | inhibition at 1 µM (ABL1; ABL1, single dose 1 μM): 18.4% | IC50 (ABL1; Table 4): 3090 nM | inhibitory activity for most other kinases (most other kinases): less than 20% | % Inhibition (FLT3-ITD): 88.0% | inhibition at 1 µM (JAK3): 6.42% | inhibition at 1 µM (FYN): 18% | inhibition at 1 µM (SYK): 6.01% | inhibition at 1 µM (ALK): 7.5% | inhibition at 1 µM (GSK3b): 7.25% | IC50 (FLT3 (R595_E596 ins EY)): 24.8 nM | inhibition at 1 µM (FLT3 (R595_E596 ins EY); FLT3 (R595_E596insEY), single dose 1 μM): 93.9% | melting point: 265 to 267 °C | inhibition at 1 µM (MEK1): 5.69% | inhibition at 1 µM (IGF1R): 6.14% | inhibition at 1 µM (ROS/ROS1): 7.4% | inhibition at 1 µM (PLK1): 5.39%
